This is an account of results in ChEMBL document CHEMBL1158243, “Hydroxycornexistin: A New Phytotoxin from Paecilomyces variotii” (J Nat Prod, 1996).

Calls of active or inactive are those of the source. The rule behind the calls is not given here.

Common to all, as to assay type: functional, organism-based
One assay has as its system Abutilon theophrasti. As to the kind of experiment: Herbicidal activity against Abutilon theophrasti assessed as plant death at 7.81 ppm after 2 weeks.
For assay [1], the system named is Amaranthus. As to the kind of experiment: Herbicidal activity against Amaranthus sp. assessed as plant death at 31.25 ppm after 2 weeks.
The subject of assay [2] is Avena sativa. As to the kind of experiment: Herbicidal activity against Avena sativa assessed as plant death at 31.25 ppm after 2 weeks.
Assay [3] concerns Sorghum bicolor. As to the kind of experiment: Herbicidal activity against Sorghum bicolor assessed as plant death at 15.63 ppm after 2 weeks.
The test system of a further assay is Echinochloa crus-galli. As to the kind of experiment: Herbicidal activity against Echinochloa crus-galli assessed as plant death at 7.81 ppm after 2 weeks.
Assay [4] has as its system Ipomoea hederacea. As to the kind of experiment: Herbicidal activity against Ipomoea hederacea assessed as plant death at 15.63 ppm after 2 weeks.
The test system of assay [5] is Avena sativa. As to the kind of experiment: Herbicidal activity against Avena sativa assessed as plant death at 7.81 ppm after 2 weeks.
Assay [6] relates to Ipomoea hederacea. As to the kind of experiment: Herbicidal activity against Ipomoea hederacea assessed as plant death at 7.81 ppm after 2 weeks.
Assay [7] concerns Zea mays. As to the kind of experiment: Herbicidal activity against Zea mays assessed as plant death at 7.81 ppm after 2 weeks.
The test system of assay [8] is Ipomoea hederacea. As to the kind of experiment: Herbicidal activity against Ipomoea hederacea assessed as plant death at 31.25 ppm after 2 weeks.
Assay [9] has as its system Xanthium strumarium. As to the kind of experiment: Herbicidal activity against Xanthium strumarium assessed as plant death at 7.81 ppm after 2 weeks.
Assay [10] deals with Amaranthus. As to the kind of experiment: Herbicidal activity against Amaranthus sp. assessed as plant death at 15.63 ppm after 2 weeks.
Assay [11] deals with Avena sativa. As to the kind of experiment: Herbicidal activity against Avena sativa assessed as plant death at 15.63 ppm after 2 weeks.
For a further assay, the system named is Digitaria sanguinalis. As to the kind of experiment: Herbicidal activity against Digitaria sanguinalis assessed as plant death at 7.81 ppm after 2 weeks.
The subject of assay [12] is Sorghum bicolor. As to the kind of experiment: Herbicidal activity against Sorghum bicolor assessed as plant death at 7.81 ppm after 2 weeks.
The test system of assay [13] is Amaranthus. As to the kind of experiment: Herbicidal activity against Amaranthus sp. assessed as plant death at 7.81 ppm after 2 weeks.
Assay [14] concerns Triticum aestivum. As to the kind of experiment: Herbicidal activity against Triticum aestivum assessed as plant death at 15.63 ppm after 2 weeks.
Assay [15] concerns Triticum aestivum. As to the kind of experiment: Herbicidal activity against Triticum aestivum assessed as plant death at 7.81 ppm after 2 weeks.
For assay [16], the system named is Setaria faberi. As to the kind of experiment: Herbicidal activity against Setaria faberi assessed as plant death at 15.63 ppm after 2 weeks.
The subject of assay [17] is Xanthium strumarium. As to the kind of experiment: Herbicidal activity against Xanthium strumarium assessed as plant death at 31.25 ppm after 2 weeks.
Assay [18] concerns Zea mays. As to the kind of experiment: Herbicidal activity against Zea mays assessed as plant death at 15.63 ppm after 2 weeks.
For assay [19], the system named is Sorghum bicolor. As to the kind of experiment: Herbicidal activity against Sorghum bicolor assessed as plant death at 31.25 ppm after 2 weeks.
For assay [20], the system named is Fallopia convolvulus. As to the kind of experiment: Herbicidal activity against Fallopia convolvulus assessed as plant death at 31.25 ppm after 2 weeks.
Assay [21] relates to Setaria faberi. As to the kind of experiment: Herbicidal activity against Setaria faberi assessed as plant death at 7.81 ppm after 2 weeks.
Assay [22] deals with Fallopia convolvulus. As to the kind of experiment: Herbicidal activity against Fallopia convolvulus assessed as plant death at 15.63 ppm after 2 weeks.

`C/C=C1/CC2=C(C(=O)OC2=O)[C@H](CCC)[C@H](O)C(=O)C[C@@H]1O`: the result in the assay with Abutilon theophrasti, with Amaranthus [1], in the assay on Sorghum bicolor [3], in the assay on Echinochloa crus-galli, with Ipomoea hederacea [4] and in the assay with Avena sativa [5] was inactive. In addition, the result in the assay with Ipomoea hederacea [6], in the assay with Zea mays [7], with Ipomoea hederacea [8], with Xanthium strumarium [9], in the assay on Amaranthus [10] and with Avena sativa [11] was inactive. For the same molecule, the outcome in the assay on Digitaria sanguinalis, with Sorghum bicolor [12], with Amaranthus [13], in the assay on Triticum aestivum [14] and in the assay on Triticum aestivum [15] was inactive. Also, the result in the assay with Avena sativa [2] was Active.

`CCC[C@H]1C2=C(C/C(=C/CO)[C@@H](O)CC(=O)[C@H]1O)C(=O)OC2=O`: the outcome in the assay on Setaria faberi [16], in the assay on Sorghum bicolor [3], in the assay with Echinochloa crus-galli, in the assay with Ipomoea hederacea [4], with Ipomoea hederacea [6] and in the assay with Zea mays [18] was inactive. In addition, the outcome in the assay on Zea mays [7], in the assay on Sorghum bicolor [19], in the assay with Setaria faberi [21], in the assay with Sorghum bicolor [12] and with Amaranthus [13] was inactive. Further, the result in the assay with Xanthium strumarium [17], in the assay with Fallopia convolvulus [20] and in the assay on Fallopia convolvulus [22] was Active.
